The values that follow come from patent US8921576B2, “Spiroindoline compound, and medicinal agent comprising same” (Kowa Company, Ltd., priority 2011, dated 2014).

Structures are written as SMILES.

In the assay the target is T1, GST-GK derived from human liver GK (Homo sapiens, UniProt P35557).
T1 construct: made in house; host or cells: Escherichia coli DH5α
T1 sequence (P35557 1-466 isoform P35557-2): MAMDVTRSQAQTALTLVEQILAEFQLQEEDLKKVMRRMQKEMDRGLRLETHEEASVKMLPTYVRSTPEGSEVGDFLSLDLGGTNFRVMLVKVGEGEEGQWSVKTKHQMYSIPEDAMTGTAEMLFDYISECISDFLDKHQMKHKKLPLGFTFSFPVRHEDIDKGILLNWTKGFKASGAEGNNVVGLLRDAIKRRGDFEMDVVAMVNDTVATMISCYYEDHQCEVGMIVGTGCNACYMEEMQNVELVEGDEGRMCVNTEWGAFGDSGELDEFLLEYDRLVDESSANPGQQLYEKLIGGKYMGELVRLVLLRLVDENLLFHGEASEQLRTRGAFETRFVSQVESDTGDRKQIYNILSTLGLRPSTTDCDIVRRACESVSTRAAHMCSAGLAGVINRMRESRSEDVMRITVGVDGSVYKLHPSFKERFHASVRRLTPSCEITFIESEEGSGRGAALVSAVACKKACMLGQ
Put plainly: In vitro GK activity measurement test (G6PDH-coupled, OD340). The assay is classed as biochemical. Particulars: test compound 1 μmol/L; glucose 2.5 mmol/L; 25° C.; OD340 slope with compound / without compound; read-out: GK activation rate (%). From the text: cDNA (GenBank Accession No. NM_033507, human glucokinase, variant 2) encoding human liver-type GK polypeptide was cloned by performing a polymerase chain reaction (hereinafter referred to as “PCR”) using a human liver cDNA library (Human liver QUICK-Clone cDNA, TAKARA BIO INC.), and the thus cloned cDNA was then introduced into an expression vector (pGEX-3X, GE Healthcare Japan) for glutathione S transferase (hereinafter referred to as GST) fusion protein expression. The resulting vector was introduced into Escherichia coli (Competent high DH5α, Toyobo Co., Ltd.), and the transformed Escherichia coli was then cultured at 37° C. Thereafter, Isopropyl β-D-1-thiogalactopyranoside (final concentration: 1 mmol/L, Sigma Aldrich Japan) was added to the culture, and the obtained mixture was then cultured at 30° C. for 3 hours. Thereafter, a cell mass was recovered. The recovered cell mass was subjected to freezing-and-thawing, and the resulting cell mass was then suspended in phosphate buffer with final concentration of 1% Triton X-100, followed by disintegration with an ultrasonic disruptor. The homogenate was centrifuged at 33,200 rpm at 4° C. for 1 hour. Thereafter, the supernatant was recovered, and a GST-GK fusion protein was then purified using a glutathione column (GSTrap FF, GE Healthcare Japan). The obtained GST-GK fusion protein was divided into some portions each having a small volume, and the thus divided proteins were then preserved at −80° C.
A GK assay method was carried out at 25° C. at a final incubation volume of 100 μL in a flat-bottom 96-well assay plate. An assay buffer comprised 25 mmol/L Hepes buffer (pH 7.1), 25 mmol/L KCl, 2.5 mmol/L or 10 mmol/L D-glucose, 5 mmol/L ATP, 1 mmol/L nicotinamide adenine dinucleotide phosphate (abbreviated as NADP), 2 mmol/L MgCl2, 1 mmol/L dithiothreitol (DTT), 2 units/mL glucose-6 phosphate dehydrogenase (G6PDH), and 1 μg/mL GST-GK derived from human liver GK. ATP, G6PDH, and NADP were purchased from Roche Diagnostics. […] The thus mixed solution was preincubated in an incubator in which the temperature was controlled at 25° C. for 15 minutes. Subsequently, the reaction was initiated by adding 10 μL of the GST-GK solution to the reaction mixture, resulting in a final concentration of 0.1 μg/mL. After initiation of the reaction, an increase in the optical concentration at 340 nm (OD340) was monitored with a microplate spectrophotometer (Varsamax, Molecular Devices Japan K.K.) every 10 seconds over an incubation period of 10 minutes. An inclination of the OD340 increase was defined as raw data. The GK activating rate was indicated as a numerical value obtained from the expression: (Inclination of OD340 increase by addition of the test compound)/(inclination of OD340 increase without addition of the test compound). The results of the GK activating rate obtained at a test compound concentration of 1 μmol/L under the condition of a glucose concentration of 2.5 mmol/L are shown in the following table.
For `CCOC(=O)CCCc1ccc2c(c1)C1(CCN(C(=O)NC)C1)CN2C(=O)Nc1ncc(Cl)s1` (stereo not drawn) [Example 419, ethyl 4-(1-((5-chlorothiazol-2-yl)carbamoyl)-1′-(methylcarbamoyl)spiro[indoline-3,3′-pyrrolidin]-5-yl)butanoate], the activity at 1 µM worked out at 535%.

Turning to `COC(=O)N1CCC2(C1)CN(C(=O)Nc1ncc(SCCC(=O)N3CCOCC3)s1)c1ccc(Cl)cc12` (stereo not drawn) [Example 154, methyl 5-chloro-1-((5-((3-morpholino-3-oxopropyl)thio)thiazol-2-yl)carbamoyl)spiro[indoline-3,3′-pyrrolidine]-1′-carboxylate], the activity at 1 µM worked out at 473%.

As for `CC(=O)N1CC(CNC(=O)N2CCC3(C2)CN(C(=O)Nc2ncc(Cl)s2)c2ccc(Cl)cc23)C1` (stereo not drawn) [Example 476, N1′-((1-acetylazetidin-3-yl)methyl)-5-chloro-N1-(5-chlorothiazol-2-yl)spiro[indoline-3,3′-pyrrolidine]-1,1′-dicarboxamide], the activity at 1 µM is 445%.

Take `CNC(=S)N1CCC2(C1)CN(C(=O)Nc1ncc(Cl)s1)c1ccc(Cl)cc12` (stereo not drawn) [Example 449, 5-Chloro-N-(5-chlorothiazol-2-yl)-1′-(methylcarbamothioyl)spiro[indoline-3,3′-pyrrolidine]-1-carboxamide]: the activity at 1 µM was 633%.

Consider `CNC(=O)N1CC[C@@]2(C1)CN(C(=O)Nc1ncc(Cl)s1)c1ccc(C#N)cc12` [Example 376, (R)—N1-(5-Chlorothiazol-2-yl)-5-cyano-N1′-methylspiro[indoline-3,3′-pyrrolidine]-1,1′-dicarboxamide], for which the activity at 1 µM was 528%.

Turning to `O=C(CCNC(=O)N1CCC2(C1)CN(C(=O)Nc1ncc(Cl)s1)c1ccc(Cl)cc12)N1CCC1` (stereo not drawn) [Example 466, N1′-(3-(Azetidin-1-yl)-3-oxopropyl)-5-chloro-N1-(5-chlorothiazol-2-yl)spiro[indoline-3,3′-pyrrolidine]-1,1′-dicarboxamide], the activity at 1 µM was 446%.

Take `COc1ccc2nc(NC(=O)N3CC4(CCN(C(C)=O)C4)c4cc(S(=O)(=O)NCc5cccs5)ccc43)sc2n1` (stereo not drawn) [Example 273, 1′-Acetyl-N-(5-methoxythiazolo[5,4-b]pyridin-2-yl)-5-(N-(thiophen-2-ylmethyl)sulfamoyl)spiro[indoline-3,3′-pyrrolidine]-1-carboxamide]: the activity at 1 µM came to 692%.

Regarding `COC(=O)N1CCC2(C1)CN(C(=O)Nc1ncc(SCCCNC(=O)C3CC3)s1)c1ccc(Cl)cc12` (stereo not drawn) [Example 454, methyl 5-chloro-1-((5-((3-(cyclopropanecarboxamido)propyl)thio)thiazol-2-yl)carbamoyl)spiro[indoline-3,3′-pyrrolidine]-1′-carboxylate], the activity at 1 µM was 575%.

Regarding `COC(=O)N1CC[C@@]2(C1)CN(C(=O)Nc1nc3ccc(OC)nc3s1)c1ccc(S(=O)(=O)N(CCN(C)C)Cc3ccccc3)cc12` [Example 347, (S)-methyl 5-(N-benzyl-N-(2-(dimethylamino)ethyl)sulfamoyl)-1-((5-methoxythiazolo[5,4-b]pyridin-2-yl)carbamoyl)spiro[indoline-3,3′-pyrrolidine]-1′-carboxylate], the activity at 1 µM was found to be 611%.

Turning to `COC(=O)NCCCSc1cnc(NC(=O)N2CC3(CCN(C(=O)OC)C3)c3cc(Cl)ccc32)s1` (stereo not drawn) [Example 455, methyl 5-chloro-1-((5-((3-((methoxycarbonyl)amino)propyl)thio)thiazol-2-yl)carbamoyl)spiro[indoline-3,3′-pyrrolidine]-1′-carboxylate], the activity at 1 µM was 606%.

Regarding `COC(=O)N1CCC2(C1)CN(C(=O)Nc1ncc(SCCCNC(C)=O)s1)c1ccc(Cl)cc12` (stereo not drawn) [Example 177, methyl 1-((5-((3-acetamidopropyl)thio)thiazol-2-yl)carbamoyl)-5-chlorospiro[indoline-3,3′-pyrrolidine]-1′-carboxylate], the activity at 1 µM came out at 530%.

Regarding `CCOC(=O)CCCNC(=O)N1CCC2(C1)CN(C(=O)Nc1ncc(Cl)s1)c1ccc(Cl)cc12` (stereo not drawn) [Example 468, Ethyl 4-(5-chloro-1-((5-chlorothiazol-2-yl)carbamoyl)spiro[indoline-3,3′-pyrrolidin]-1′-ylcarboxamido)butanoate], the activity at 1 µM was determined as 405%.

Consider `CC(=O)N1CCC2(C1)CN(C(=O)Nc1ncc(Cl)s1)c1ccc(Br)cc12` (stereo not drawn) [Example 3, 1′-acetyl-5-bromo-N-(5-chlorothiazol-2-yl)spiro[indoline-3,3′-pyrrolidine]-1-carboxamide], for which the activity at 1 µM came out at 716%.

On to `CNC(=O)N1CC[C@@]2(C1)CN(C(=O)Nc1ncc(OC)s1)c1ccc(C(F)(F)F)cc12` [Example 489, (R)—N1-(5-Methoxythiazol-2-yl)-N1′-methyl-5-(trifluoromethyl)spiro[indoline-3,3′-pyrrolidine]-1,1′-dicarboxamide], for which the activity at 1 µM came out at 645%.

On to `COC(=O)N1CC[C@@]2(C1)CN(C(=O)Nc1nc3ccc(OC)nc3s1)c1ccc(S(=O)(=O)N(CCO)Cc3ccccc3)cc12` [Example 345, (S)-methyl 5-(N-benzyl-N-(2-hydroxyethyl)sulfamoyl)-1-((5-methoxythiazolo[5,4-b]pyridin-2-yl)carbamoyl)spiro[indoline-3,3′-pyrrolidine]-1′-carboxylate], for which the activity at 1 µM turned out to be 785%.

For `CNC(=O)CCCNC(=O)N1CCC2(C1)CN(C(=O)Nc1ncc(Cl)s1)c1ccc(Cl)cc12` (stereo not drawn) [Example 472, 5-Chloro-N1-(5-chlorothiazol-2-yl)-N1′-(4-(methylamino)-4-oxobutyl)spiro[indoline-3,3′-pyrrolidine]-1,1′-dicarboxamide], the activity at 1 µM was determined as 456%.

Regarding `CNC(=O)N1CC[C@@]2(C1)CN(C(=O)Nc1ncc(F)s1)c1ccc(Cl)cc12` [Example 374, (R)-5-chloro-N1-(5-fluorothiazol-2-yl)-N1′-methylspiro[indoline-3,3′-pyrrolidine]-1,1′-dicarboxamide], the activity at 1 µM was found to be 437%.

In the case of `CCOC(=O)CCNC(=O)N1CCC2(C1)CN(C(=O)Nc1ncc(Cl)s1)c1ccc(Cl)cc12` (stereo not drawn) [Example 462, Ethyl 3-(5-chloro-1-((5-chlorothiazol-2-yl)carbamoyl)spiro[indoline-3,3′-pyrrolidin]-1′-ylcarboxamido)propionate], the activity at 1 µM is 454%.

Take `COCCN(Cc1ccccc1)S(=O)(=O)c1ccc2c(c1)C1(CCN(C(C)=O)C1)CN2C(=O)Nc1nc2ccc(OC)nc2s1` (stereo not drawn) [Example 288, 1′-Acetyl-5-(N-benzyl-N-(2-methoxyethyl)sulfamoyl)-N-(5-methoxythiazolo[5,4-b]pyridin-2-yl)spiro[indoline-3,3′-pyrrolidine]-1-carboxamide]: the activity at 1 µM was determined as 793%.

Turning to `CNC(=O)N1CCC2(C1)CN(C(=O)Nc1ncc(Cl)s1)c1ccc(CCCC(=O)N3CCC3)cc12` (stereo not drawn) [Example 424, 5-(4-(Azetidin-1-yl)-4-oxobutyl)-N1-(5-chlorothiazol-2-yl)-N1′-methylspiro[indoline-3,3′-pyrrolidine]-1,1′-dicarboxamide], the activity at 1 µM was 438%.

For the compound `NCC(=O)N1CCC2(C1)CN(C(=O)Nc1ncc(Cl)s1)c1ccc(Br)cc12` (stereo not drawn) [Example 20, 1′-(2-aminoacetyl)-5-bromo-N-(5-chlorothiazol-2-yl)spiro[indoline-3,3′-pyrrolidine]-1-carboxamide], the activity at 1 µM amounted to 429%.
